Experimental data reported in patent US6642222B2, “Pyrano, piperidino, and thiopyrano compounds and methods of use” (Abbott Laboratories, priority 1998, dated 2003).

Legend:
[1] = system: Guinea-Pig Bladder (GPB) Cells; test: Membrane Hyperpolarization (MHP) assay, DiBAC(4)3 / FLIPR; details: Cavia porcellus; for EC50: membrane hyperpolarization, GPB cells; for Emax: read-out: Maximal Response (% P1075), maximal steady-state hyperpolarization, normalized to 10 μM P1075 (100%)
Experimental: Compounds were evaluated for potassium channel opening activity using primary cultured guinea-pig urinary bladder (GPB) cells.
For the preparation of urinary bladder smooth muscle cells, urinary bladders were removed from male guinea-pigs (Hartley, Charles River, Wilmington, Mass.) weighing 300-400 grams (g) and placed in ice-cold Ca^2+-free Krebs solution (Composition, millimolar (mM): KCl, 2.7; KH2PO4, 1.5; NaCl, 75; Na2HPO4, 9.6; Na2HPO4.7H2O, 8; MgSO4, 2; glucose, 5; HEPES, 10; pH 7.4). Cells were isolated by enzymatic dissociation (Klockner, U. and Isenberg, G., Pflugers Arch. (1985), 405, 329-339). The bladder was cut into small sections and incubated in 5 milliliters (mL) of the Kreb's solution containing 1 milligram per milliliter (mg/mL) of collagenase (Sigma, St. Louis, Mo.) and 0.2 mg/mL of pronase (Calbiochem, La Jolla, Calif.) with continuous stirring in a cell incubator for 30 minutes. The mixture was then centrifuged at 1300× g for 5 minutes, and the pellet resuspended in Dulbecco's phosphate buffered saline (PBS) (GIBCO, Gaithersburg, Md.) and recentrifuged to remove residual enzyme. The cell pellet was resuspended in 5 mL growth media (composition: Dulbecco's modified Eagle's medium supplemented with 10% fetal bovine serum, 100 units/mL penicillin, 100 units/mL streptomycin and 0.25 mg/mL amphotericin B) and further dissociated by pipetting the suspension through a flame-polished Pasteur pipette and passing it through a polypropylene mesh membrane (Spectrum, Houston, Tex.). The cell density was adjusted to 100,000 cells/mL by resuspension in growth media. Cells were plated in clear-bottomed black 96-well plates (Packard) for membrane potential studies at a density of 20,000 cells/well and maintained in a cell incubator with 90% air: 10% CO2 until confluent. Cells were confirmed to be of smooth muscle type by cytoskeletal staining using a monoclonal mouse anti human-α-smooth muscle actin (Biomeda, Foster City, Calif.).
Functional activity at potassium channels was measured by evaluating changes in membrane potential using the bis-oxonol dye DiBAC(4)3 (Molecular Probes) in a 96-well cell-based kinetic assay system using a Fluorescent Imaging Plate Reader (FLIPR) (K. S. Schroeder et al., J. Biomed. Screen., v. 1 pp. 75-81 (1996)). DiBAC(4)3 is an anionic potentiometric probe which partitions between cells and extracellular solution in a membrane potential-dependent manner. With increasing membrane potential (for example, K^+ depolarization), the probe further partitions into the cell; this is measured as an increase in fluorescence due to dye interaction with intracellular lipids and proteins. Conversely, decreasing membrane potential (hyperpolarization by potassium channel openers) evokes a decrease in fluorescence.
Confluent guinea-pig urinary bladder cells cultured in black clear-bottomed 96-well plates were rinsed twice with 200 mL assay buffer (composition, mM: HEPES, 20; NaCl, 120; KCl, 2; CaCl2, 2; MgCl2, 1; glucose, 5; pH 7.4 at 25° C.) containing 5 μM DiBAC(4)3 and incubated with 180 mL of the buffer in a cell incubator for 30 minutes at 37° C. to ensure dye distribution across the membrane. After recording the baseline fluorescence for 5 minutes, the reference or test compounds, prepared at 10 times the concentration in the assay buffer, were added directly to the wells. Changes in fluorescence were monitored for an additional 25 minutes.
Routinely, five concentrations of P1075 or test compounds (log or half-log dilutions) were evaluated and the maximal steady-state hyperpolarization values (expressed as % relative to P1075) plotted as a function of concentration. The EC50 (concentration that elicites 50% of the maximal response for the test sample) values were calculated by non-linear regression analysis using a four parameter sigmoidal equation. The maximal micromolar EC50 response of each compound (expressed as % relative to P1075) is reported.

`CCC1OC(=O)C2=C1NC1=C(C(=O)COC1)C2c1ccc(F)c(Br)c1` (single isomer, unassigned) [Example 96, 9-(3-bromo-4-fluorophenyl)-3-ethyl-5,9-dihydro-3H-furo[3,4-b]pyrano[4,3-e]pyridine-1,8(4H,7H)-dione] showed a melting point of 246 to 248 °C.

`CCCC1OC(=O)C2=C1NC1=C(C(=O)COC1)C2c1ccc(F)c(Br)c1` (single isomer, unassigned) [Example 97, 9-(3-bromo-4-fluorophenyl)-3-propyl-5,9-dihydro-3H-furo[3,4-b]pyrano[4,3-e]pyridine-1,8(4H,7H)-dione] gave a melting point of 206 to 208 °C.

Work on `CCCC1OC(=O)C2=C1NC1=C(C(=O)COC1)C2c1ccc(F)c(Br)c1` (single isomer, unassigned) [Example 98, 9-(3-bromo-4-fluorophenyl)-3-propyl-5,9-dihydro-3H-furo[3,4-b]pyrano[4,3-e]pyridine-1,8(4H,7H)-dione] yielded a melting point of 219 to 220 °C.

`CN1CC(=O)C2=C(C1)NC1=C(C(=O)CCC1)C2c1ccc(F)c(Br)c1.Cl` (stereo not shown) [Example 3, 5-(3-bromo-4-fluorophenyl)-2-methyl-2,3,5,8,9,10-hexahydrobenzo[b][1,7]naphthyridine-4,6(1H, 7H)-dione Hydrochloride] showed an EC50 [1] of 27000 nM, an Emax [1] of 41% and a melting point of 248 to 250 °C.

`O=C1COCC2=C1C(c1ccc(F)c(Br)c1)C1=C(CNC1=O)N2` (stereo not shown) [Example 27, 9-(3-bromo-4-fluorophenyl)-2,3,5,9-tetrahydropyrano[3,4-b]pyrrolo[3,4-e]pyridine-1,8(4H,7H)-dione] showed an EC50 [1] of 970 nM, an Emax [1] of 87% and a melting point of over 260 °C.

For `CC1(C)CCC2=C(C1=O)C(c1ccc(F)c(Br)c1)C1=C(COCC1=O)N2` (stereo not shown) [Example 41, 5-(3-bromo-4-fluorophenyl)-7,7-dimethyl-5,8,9,10-tetrahydro-1H-pyrano[3,4-b]quinoline-4,6(3H,7H)-dione], the EC50 [1] was 71 nM, the Emax [1] was 66% and the melting point was over 260 °C.

`CC1(C)OC(=O)C2=C1NC1=C(C(=O)COC1)C2c1ccc(F)c(Br)c1` (stereo not shown) [Example 99, 9-(3-bromo-4-fluorophenyl)-3,3-dimethyl-5,9-dihydro-3H-furo[3,4-b]pyrano[4,3-e]pyridine-1,8(4H,7H)-dione] gave a melting point of over 260 °C.
